According to ChEMBL document CHEMBL4622954, “Structural manipulation of aporphines via C10 nitrogenation leads to the identification of new 5-HT7AR ligands” (Bioorg Med Chem, 2020):
Counter-ions that a name gives are not always drawn.

Key:
[1] = molecular target: 5-hydroxytryptamine receptor 2A (Homo sapiens, UniProt P28223);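 also: [3H]-Ketanserin displacement from the 5-HT2A receptor after 90 min incubation, with bound label read by MicroBeta counting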
Description: Displacement of [3H]-Ketanserin from 5-HT2A receptor (unknown origin) incubated for 90 mins by microbeta counting method

[2] = molecular target: T1, 5-hydroxytryptamine receptor 6 (Homo sapiens, UniProt P50406)
T1 sequence (P50406 whole entry): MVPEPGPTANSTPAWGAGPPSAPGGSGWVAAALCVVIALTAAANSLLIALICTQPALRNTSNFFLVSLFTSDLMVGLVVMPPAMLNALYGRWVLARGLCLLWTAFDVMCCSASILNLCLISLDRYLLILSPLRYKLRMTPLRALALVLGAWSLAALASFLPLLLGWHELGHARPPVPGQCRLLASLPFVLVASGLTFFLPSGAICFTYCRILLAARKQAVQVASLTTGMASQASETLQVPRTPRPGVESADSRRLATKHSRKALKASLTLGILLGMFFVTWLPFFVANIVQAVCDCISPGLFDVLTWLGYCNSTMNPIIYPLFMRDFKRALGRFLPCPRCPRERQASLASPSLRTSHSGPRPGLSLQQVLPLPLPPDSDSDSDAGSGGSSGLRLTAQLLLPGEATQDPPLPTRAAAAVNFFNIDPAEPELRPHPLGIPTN

[3] = molecular target: T2, 5-hydroxytryptamine receptor 1A (Homo sapiens, UniProt P08908); assay: biochemical
T2 sequence (P08908 whole entry): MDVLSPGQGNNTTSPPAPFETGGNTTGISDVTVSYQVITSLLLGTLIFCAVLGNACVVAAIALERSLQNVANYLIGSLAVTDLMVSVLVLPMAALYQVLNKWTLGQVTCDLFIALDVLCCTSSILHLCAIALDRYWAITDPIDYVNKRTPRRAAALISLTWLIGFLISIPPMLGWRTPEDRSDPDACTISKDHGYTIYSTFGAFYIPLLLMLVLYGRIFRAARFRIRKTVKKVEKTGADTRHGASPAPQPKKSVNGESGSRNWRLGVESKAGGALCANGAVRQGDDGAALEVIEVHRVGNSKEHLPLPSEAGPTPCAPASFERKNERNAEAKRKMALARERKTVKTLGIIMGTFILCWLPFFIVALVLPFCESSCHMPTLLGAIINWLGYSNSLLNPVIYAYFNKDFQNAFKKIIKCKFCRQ

[4] = molecular target: T3, 5-hydroxytryptamine receptor 7 (Homo sapiens, UniProt P34969); assay: biochemical
T3 sequence (P34969 whole entry): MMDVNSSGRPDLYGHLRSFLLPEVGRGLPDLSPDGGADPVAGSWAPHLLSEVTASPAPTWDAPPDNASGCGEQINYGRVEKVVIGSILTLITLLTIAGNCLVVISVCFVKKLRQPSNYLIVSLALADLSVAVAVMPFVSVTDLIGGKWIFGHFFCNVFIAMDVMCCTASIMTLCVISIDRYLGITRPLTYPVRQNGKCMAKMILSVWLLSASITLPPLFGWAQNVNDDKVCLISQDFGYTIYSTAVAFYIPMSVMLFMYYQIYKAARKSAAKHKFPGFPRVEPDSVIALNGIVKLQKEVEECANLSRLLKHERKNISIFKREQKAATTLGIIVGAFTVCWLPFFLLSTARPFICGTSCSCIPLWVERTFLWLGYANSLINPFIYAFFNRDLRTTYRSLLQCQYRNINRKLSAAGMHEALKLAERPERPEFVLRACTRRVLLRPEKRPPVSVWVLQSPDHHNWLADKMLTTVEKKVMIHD
Description: (§2) Displacement of [3H]-LSD from human 5-HT7A receptor expresssed in stable HEK cell membrane incubated for 90 mins by microbeta counting method

[5] = molecular target: T1, 5-hydroxytryptamine receptor 6; assay: Displacement of [3H]-LSD from human 5-HT6 receptor expresssed in stable HEK cell membrane incubated for 90 mins by microbeta counting method
[6] = molecular target: T1, 5-hydroxytryptamine receptor 6; assay: biochemical
[7] = molecular target: T4, D(4) dopamine receptor (Homo sapiens) (UniProt P21917); assay: (§1) Displacement of [3H]-N-Methylspiperone from human dopamine D4 receptor expressed in stable HEK cells incubated for 90 mins by microbeta counting method; format: cell-based
T4 sequence (whole entry): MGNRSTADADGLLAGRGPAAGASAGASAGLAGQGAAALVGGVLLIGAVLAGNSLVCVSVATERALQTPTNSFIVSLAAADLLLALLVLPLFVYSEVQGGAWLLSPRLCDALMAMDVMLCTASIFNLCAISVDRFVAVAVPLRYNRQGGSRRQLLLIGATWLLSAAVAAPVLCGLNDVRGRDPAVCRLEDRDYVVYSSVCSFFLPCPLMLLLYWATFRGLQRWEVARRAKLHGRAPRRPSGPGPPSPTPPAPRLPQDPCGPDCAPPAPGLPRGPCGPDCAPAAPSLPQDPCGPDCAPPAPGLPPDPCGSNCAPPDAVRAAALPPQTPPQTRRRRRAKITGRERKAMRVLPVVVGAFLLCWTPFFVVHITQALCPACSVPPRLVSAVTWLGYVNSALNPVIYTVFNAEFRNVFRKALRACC

[8] = molecular target: T5, D(4) dopamine receptor (Homo sapiens, UniProt P21917); assay: as §1; format: cell-based
T5 sequence (P21917 whole entry): T4 sequence (whole entry)

[9] = molecular target: D(1B) dopamine receptor (Homo sapiens, UniProt P21918); assay: Binding affinity to human dopamine D5 receptor expressed in HEKT cells incubated for 90 mins by microbeta counting method; format: cell-based
Sequence of D(1B) dopamine receptor (P21918 whole entry): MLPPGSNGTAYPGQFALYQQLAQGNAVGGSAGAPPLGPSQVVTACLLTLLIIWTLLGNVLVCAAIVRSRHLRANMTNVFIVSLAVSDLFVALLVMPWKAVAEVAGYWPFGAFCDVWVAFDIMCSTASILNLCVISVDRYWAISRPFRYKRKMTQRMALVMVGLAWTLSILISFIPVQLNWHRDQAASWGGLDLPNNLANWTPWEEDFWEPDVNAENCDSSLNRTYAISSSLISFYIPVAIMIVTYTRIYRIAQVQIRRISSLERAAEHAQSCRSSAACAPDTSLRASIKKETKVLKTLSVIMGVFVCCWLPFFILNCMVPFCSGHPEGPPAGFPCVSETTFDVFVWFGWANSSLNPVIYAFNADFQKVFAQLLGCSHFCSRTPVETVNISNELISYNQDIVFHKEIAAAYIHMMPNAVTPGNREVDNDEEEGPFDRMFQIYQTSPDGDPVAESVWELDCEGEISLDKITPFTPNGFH

[10] = species: Homo sapiens; assay: Selectivity index, ratio of Ki for human 5-HT7A receptor expressed in stable HEK cell membrane to Ki for human 5-HT1A receptor expresssed in stable CHO cell membrane incubated for 90 mins by microbeta counting method; format: cell-based
[11] = molecular target: D(3) dopamine receptor (Homo sapiens, UniProt P35462)
Sequence of D(3) dopamine receptor (P35462 whole entry): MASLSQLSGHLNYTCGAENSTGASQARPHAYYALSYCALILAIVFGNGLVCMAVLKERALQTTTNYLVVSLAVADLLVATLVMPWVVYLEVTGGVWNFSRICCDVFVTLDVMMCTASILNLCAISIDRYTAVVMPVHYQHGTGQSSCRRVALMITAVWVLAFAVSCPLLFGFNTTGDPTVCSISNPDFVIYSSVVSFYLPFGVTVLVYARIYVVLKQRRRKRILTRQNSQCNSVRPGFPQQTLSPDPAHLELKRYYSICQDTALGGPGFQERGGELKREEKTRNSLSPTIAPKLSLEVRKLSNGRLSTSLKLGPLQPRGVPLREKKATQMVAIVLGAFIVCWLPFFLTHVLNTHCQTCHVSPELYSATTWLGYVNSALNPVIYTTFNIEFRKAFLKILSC
Description: Displacement of [3H]-N-Methylspiperone from dopamine D3 receptor (unknown origin) incubated for 90 mins by microbeta counting method

[12] = molecular target: T6, D(1A) dopamine receptor (Homo sapiens, UniProt P21728)
T6 sequence (P21728 whole entry): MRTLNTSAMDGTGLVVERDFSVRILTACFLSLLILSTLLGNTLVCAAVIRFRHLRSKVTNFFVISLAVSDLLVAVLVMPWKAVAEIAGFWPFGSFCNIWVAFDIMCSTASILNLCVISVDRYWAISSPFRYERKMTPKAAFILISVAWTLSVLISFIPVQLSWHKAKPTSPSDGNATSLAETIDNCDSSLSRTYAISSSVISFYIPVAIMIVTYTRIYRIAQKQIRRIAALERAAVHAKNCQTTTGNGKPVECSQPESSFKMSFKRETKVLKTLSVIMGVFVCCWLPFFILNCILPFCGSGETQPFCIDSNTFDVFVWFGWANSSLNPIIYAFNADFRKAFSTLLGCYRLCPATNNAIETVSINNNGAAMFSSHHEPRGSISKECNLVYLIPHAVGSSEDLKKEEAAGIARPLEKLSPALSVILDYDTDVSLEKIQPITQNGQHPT

[13] = molecular target: T7, D(2) dopamine receptor (Homo sapiens, UniProt P14416); settings: fibroblast
T7 sequence (P14416 whole entry): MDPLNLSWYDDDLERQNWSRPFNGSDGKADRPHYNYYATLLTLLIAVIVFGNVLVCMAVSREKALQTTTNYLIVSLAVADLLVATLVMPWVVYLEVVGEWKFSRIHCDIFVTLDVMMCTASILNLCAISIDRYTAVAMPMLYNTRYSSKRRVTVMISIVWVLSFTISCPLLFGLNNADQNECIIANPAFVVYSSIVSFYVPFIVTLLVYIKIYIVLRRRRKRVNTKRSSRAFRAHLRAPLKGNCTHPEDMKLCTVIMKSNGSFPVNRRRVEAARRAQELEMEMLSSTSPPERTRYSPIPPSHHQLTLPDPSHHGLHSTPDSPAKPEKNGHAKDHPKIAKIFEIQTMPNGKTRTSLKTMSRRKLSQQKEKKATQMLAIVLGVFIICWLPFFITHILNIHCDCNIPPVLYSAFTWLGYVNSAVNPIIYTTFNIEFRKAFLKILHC

[14] = molecular target: T6, D(1A) dopamine receptor; assay: Displacement of [3H]-SCH23390 from human dopamine D1 receptor expressed in HEKT cells incubated for 90 mins by microbeta counting method
[15] = molecular target: T7, D(2) dopamine receptor; assay: Displacement of [3H]-N-Methylspiperone from human dopamine D2 receptor expressed in stable fibroblast cells incubated for 90 mins by microbeta counting method
[16] = molecular target: T2, 5-hydroxytryptamine receptor 1A; settings: cho
[17] = molecular target: T8, 5-hydroxytryptamine receptor 1A (Homo sapiens) (UniProt P08908); settings: CHO
T8 sequence (whole entry): T2 sequence (P08908 whole entry)

[18] = molecular target: T3, 5-hydroxytryptamine receptor 7
Description: as §2

[19] = molecular target: T3, 5-hydroxytryptamine receptor 7; remark: listed apart in the source
Description: as §2

[20] = molecular target: T6, D(1A) dopamine receptor; assay: biochemical
[21] = molecular target: T7, D(2) dopamine receptor; assay: biochemical
[22] = molecular target: T3, 5-hydroxytryptamine receptor 7; assay: Antagonist activity at human recombinant 5-HT7 receptor expressed in CHOK1 Hunter cell preincubated for 30 mins followed by incubation with agonist for 30 to 60 mins by hit-hunter cAMP assay based chemiluminescence analysis; format: functional, CHO-K1

Sequence of 5-hydroxytryptamine receptor 2A (P28223 whole entry): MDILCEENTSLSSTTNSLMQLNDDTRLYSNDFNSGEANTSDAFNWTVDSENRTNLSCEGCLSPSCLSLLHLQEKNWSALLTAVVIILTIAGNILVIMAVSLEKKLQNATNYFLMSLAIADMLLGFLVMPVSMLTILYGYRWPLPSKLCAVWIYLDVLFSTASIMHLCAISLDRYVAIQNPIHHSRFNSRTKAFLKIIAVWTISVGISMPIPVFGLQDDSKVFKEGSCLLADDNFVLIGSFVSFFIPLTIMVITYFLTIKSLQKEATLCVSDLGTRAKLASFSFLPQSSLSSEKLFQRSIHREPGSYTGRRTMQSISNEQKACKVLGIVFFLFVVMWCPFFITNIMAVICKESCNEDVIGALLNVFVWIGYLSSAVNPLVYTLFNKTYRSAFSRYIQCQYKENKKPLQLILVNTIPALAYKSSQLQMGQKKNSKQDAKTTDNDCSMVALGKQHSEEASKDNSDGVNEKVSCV

Row | Ki [1] | Ki [2] | Ki [3] | Ki [4] | inhibition [5] | Ki ([1]; read-out: Ki) | Ki [6] | Structure (SMILES) | also measured
1 |  |  | 511 nM | 31 nM |  | 1330 nM | 218 nM | C#CCOc1c(OC)cc2c3c1-c1cc(NS(C)(=O)=O)ccc1CC3N(C)CC2 (racemic) | 
2 |  |  | 1540 nM | 636 nM |  | 974 nM | 1500 nM | COc1cc2c3c(c1OCC1CC1)-c1cc(NC(C)=O)ccc1CC3N(C)CC2 (racemic) | 
3 |  |  | 1280 nM | 353 nM |  | 857 nM | 527 nM | COc1cc2c3c(c1OCC1CC1)-c1cc(NC(N)=O)ccc1CC3N(C)CC2 (racemic) | 
4 | Not Active |  |  | 289 nM |  |  | 415 nM | COc1cc2c3c(c1OC)-c1cc(NC(N)=O)ccc1CC3N(C)CC2 (racemic) | Ki [16]: Not Active; inhibition [17]: < 50%
5 |  |  | 661 nM | 455 nM |  | 1040 nM | 354 nM | C#CCOc1c(OC)cc2c3c1-c1cc(NC(=O)CCC)ccc1CC3N(C)CC2 (racemic) | 
6 |  |  | 463 nM | 188 nM |  | 443 nM | 198 nM | C=CCOc1c(OC)cc2c3c1-c1cc(NC(=O)CCC)ccc1CC3N(C)CC2 (racemic) | 
7 |  |  | 385 nM | 114 nM |  | 433 nM | 505 nM | COc1cc2c3c(c1OCC1CC1)-c1cc(NS(C)(=O)=O)ccc1CC3N(C)CC2 (racemic) | 
8 | Not Active |  | 911 nM | 123 nM |  |  | 410 nM | C#CCOc1c(OC)cc2c3c1-c1cc(NC(N)=O)ccc1CC3N(C)CC2 (racemic) | 
9 | Not Active |  |  | 89 nM |  |  | 86 nM | COc1cc2c3c(c1OC)-c1cc(NS(C)(=O)=O)ccc1CC3N(C)CC2 (racemic) | Ki [16]: Not Active; inhibition [17]: < 50%
10 |  |  | 429 nM | 395 nM |  | 665 nM | 322 nM | CCCC(=O)Nc1ccc2c(c1)-c1c(OCC3CC3)c(OC)cc3c1C(C2)N(C)CC3 (racemic) | 
11 | Not Active | Not Active | 23 nM | 199 nM | < 50% |  |  | CCCN1CCc2cccc3c2C1Cc1ccc(NS(C)(=O)=O)cc1-3 (racemic) | 
12 |  |  | 403 nM | 42 nM |  | 668 nM | 590 nM | C=CCOc1c(OC)cc2c3c1-c1cc(NS(C)(=O)=O)ccc1CC3N(C)CC2 (racemic) | 
13 | Not Active | Not Active | 133 nM | 27 nM | < 50% |  |  | CN1CCc2cccc3c2C1Cc1ccc(NS(C)(=O)=O)cc1-3 (racemic) | 
14 |  |  | 469 nM | 67 nM |  | 417 nM | 356 nM | CCCC(=O)Nc1ccc2c(c1)-c1c(OC)c(OC)cc3c1C(C2)N(C)CC3 (racemic) | 

Second part, the compound before the results:

Row | Structure (SMILES) | Ki [1] | Ki [2] | Ki [3] | Ki [4] | inhibition [5] | Ki ([1]; read-out: Ki) | Ki [6] | also measured
15 | CCCN1CCc2cccc3c2C1Cc1ccc(N)cc1-3 (stereo not given) | Not Active | Not Active | 30 nM | 63 nM | < 50% |  |  | 
16 | CCCN1CCc2cccc3c2C1Cc1cc2sc(N)nc2cc1-3 (racemic) | Not Active | Not Active | 7.5 nM | 132 nM | < 50% |  |  | inhibition [7]: < 50%; Ki [8]: Not Active; Ki [9]: Not Active; inhibition [9]: < 50%; Ratio Ki [10]: 17; Ki [11]: 2110 nM; Ki [12]: Not Active; Ki [13]: Not Active; inhibition [14]: < 50%; inhibition [15]: < 50%
17 | CN1CCc2cccc3c2C1Cc1cc2sc(N)nc2cc1-3 (racemic) | Not Active | Not Active | 23 nM |  |  |  |  | Ki [8]: Not Active; Ki [9]: Not Active; Ki [12]: Not Active; Ki [13]: Not Active
18 | CCCN1CCc2cccc3c2C1Cc1ccc(N(C)C)cc1-3 (racemic) | Not Active | Not Active | 256 nM | 984 nM | < 50% |  |  | 
19 | CCCC(=O)Nc1ccc2c(c1)-c1cccc3c1C(C2)N(CCC)CC3 (racemic) | Not Active | Not Active | 15 nM | 311 nM | < 50% |  |  | 
20 | CN1CCc2cccc3c2C1Cc1ccc(NC(N)=O)cc1-3 (racemic) | Not Active | Not Active | 49 nM |  |  |  |  | Ki [8]: Not Active; Ki [9]: Not Active; Ki [11]: 2460 nM; Ki [12]: Not Active; Ki [13]: Not Active
21 | CN(C)c1ccc2c(c1)-c1cccc3c1C(C2)N(C)CC3 (racemic) |  |  | 458 nM | 17 nM |  | 566 nM | 1590 nM | 
22 | CCCN1CCc2cccc3c2C1Cc1ccc(NC(C)=O)cc1-3 (racemic) | Not Active | Not Active | 21 nM |  | < 50% |  |  | Ki [18]: Not Active; inhibition [19]: < 50%
23 | COc1cc2c3c(c1OCC1CC1)-c1cc(N)ccc1CC3N(C)CC2 (racemic) |  |  |  | 104 nM |  | 110 nM | 132 nM | Ki [16]: Not Active; inhibition [17]: < 50%
24 | CCCN1CCc2cccc3c2C1Cc1ccc(NC(N)=O)cc1-3 (racemic) | Not Active | Not Active | 236 nM |  | < 50% |  |  | Ki [18]: Not Active; inhibition [19]: < 50%
25 | CN1CCc2cccc3c2C1Cc1ccc2nc(N)sc2c1-3 (racemic) |  | Not Active | 187 nM | 9.9 nM | < 50% | 1040 nM |  | Ki ([8]; read-out: Ki): 481 nM; Ki [9]: Not Active; inhibition [9]: < 50%; Ki [11]: 381 nM; Ki [20]: 1150 nM; Ki [21]: 1740 nM
26 | COc1cc2c3c(c1OC)-c1cc(N(C)C)ccc1CC3N(C)CC2 (racemic) |  |  | 1570 nM | 73 nM |  | 295 nM | 127 nM | 
27 | C=CCOc1c(OC)cc2c3c1-c1cc(N(C)C)ccc1CC3N(C)CC2 (racemic) |  |  |  | 309 nM |  | 318 nM | 102 nM | Ki [16]: Not Active; inhibition [17]: < 50%
28 | COc1cc2c3c(c1OCC1CC1)-c1cc(N(C)C)ccc1CC3N(C)CC2 (racemic) |  |  | 1440 nM | 752 nM |  | 878 nM | 329 nM | 
29 | CCCN1CCc2cccc3c2C1Cc1ccc2nc(N)sc2c1-3 (racemic) | Not Active | Not Active | 93 nM |  | < 50% |  |  | 
30 | O=C(CCCN1CCC2(CC1)C(=O)NCN2c1ccccc1)c1ccc(F)cc1 [SPIPERONE HYDROCHLORIDE] |  |  |  |  |  |  |  | IC50 [22]: 310 nM
